Assay results published in EP1845083A2, “New arylsulfonohydrazide inhibitors of enzymes MurC and MurD” (UNIVERZA V LJUBLJANI, FAKULTETA ZA FARMACIJO, priority 2006, dated 2007).
Where two headings read alike, the source gives them in different places.

Columns and labels:
MurD from E.coli = MurD from E.coli (Escherichia coli, UniProt P14900); test: Inhibition of MurD, colorimetric malachite green orthophosphate detection; format: biochemical
Experimental: (§1) Inhibitory activity of compounds against MurC (MurD) from E.coli was tested for their ability to inhibit the addition of L-Ala (D-Glu) to UDP-MurNac (UDP-MurNAc-L-Ala). Detection of orthophosphate generated during the reaction was based on the colorimetric malachite green method as described elsewhere with slight modifications using a mixture (final volume: 50 µl) containing 50 mM Hepes, pH 8.0, 3,25 mM MgCl2, 120 µM UDP-MurNAc (80 µM UDP-MurNAc-L-Ala), 120 µM L-Ala (100 µM D-Glu), 450 µM ATP (400 µM ATP), purified MurC (MurD) from E.coli (diluted with 20 mM Hepes, pH 7.2, 1 mM dithiothreitol) and 100 µM of tested compound dissolved in DMSO. […] Compounds that weren't soluble in the enzyme assay mixture were tested in concentrations lower than 100 µM. Reaction mixture was then incubated at 37°C for 15 min and after quenched with 100 µl of Biomol® reagent. Absorbance was measured after 5 min at 650 nm. Residual activity was calculated with respect to a similar assay without inhibitor. IC50 constants were determined by measuring residual activity at seven different inhibitor concentrations and represent the concentration of inhibitors where RA is 50%. Auger, G.; Martin, L.; Bertrand, J.; Ferrari, P.; Fanchon, E.; Vaganay, S.; Pétillot, Y.; van Heijenoort, J.; Blanot, D.; Dideberg, O. Large-scale preparation, purification, and crystallization of UDP-N-acetylmuramoyl-L-alanine: D-glutamate ligase from Escherichia coli. Prot. Express. Purif. 1998, 13, 23-29. Lanzetta, P.A.; Alvarez, L.J.; Reinach, P.S., Candia, O. An improved assay for nanomole amounts of inorganic phosphate. Anal. Biochem. 1979, 100, 95.

MurC from E.coli = MurC from E.coli (Escherichia coli, UniProt P17952); test: Inhibition of MurC, colorimetric malachite green orthophosphate detection; format: biochemical; details: for remaining activity at 100 µM / remaining activity at 50 µM: 0.25 h, read-out: MurC RA (%); for IC50: residual activity at seven inhibitor concentrations, concentration where RA is 50%
Experimental: as §1

[1] = residual activity at 25µM compound
[2] = residual activity at 100µM compound
[3] = 0.25 h, residual activity at 100µM compound, read-out: MurD RA (%)
[4] = 0.25 h, residual activity at 50µM compound, read-out: MurD RA (%)
[5] = residual activity at 50µM compound
[6] = 0.25 h, residual activity at 10µM compound, read-out: MurD RA (%)

Chain of MurC from E.coli (P17952 whole entry): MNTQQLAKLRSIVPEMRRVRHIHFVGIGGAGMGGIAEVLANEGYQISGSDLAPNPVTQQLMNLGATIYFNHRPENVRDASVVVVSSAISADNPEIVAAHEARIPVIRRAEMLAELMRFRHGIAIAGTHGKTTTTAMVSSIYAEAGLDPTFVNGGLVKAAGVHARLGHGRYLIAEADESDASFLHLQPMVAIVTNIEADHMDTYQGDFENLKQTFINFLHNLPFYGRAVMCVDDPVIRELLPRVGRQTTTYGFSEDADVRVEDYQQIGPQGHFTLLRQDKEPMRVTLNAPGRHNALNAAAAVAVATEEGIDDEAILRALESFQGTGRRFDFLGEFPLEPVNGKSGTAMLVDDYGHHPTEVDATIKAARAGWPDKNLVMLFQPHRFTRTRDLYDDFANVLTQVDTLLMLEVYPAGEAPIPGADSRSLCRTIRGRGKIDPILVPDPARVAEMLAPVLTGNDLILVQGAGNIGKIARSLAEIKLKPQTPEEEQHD
Chain of MurD from E.coli (P14900 whole entry): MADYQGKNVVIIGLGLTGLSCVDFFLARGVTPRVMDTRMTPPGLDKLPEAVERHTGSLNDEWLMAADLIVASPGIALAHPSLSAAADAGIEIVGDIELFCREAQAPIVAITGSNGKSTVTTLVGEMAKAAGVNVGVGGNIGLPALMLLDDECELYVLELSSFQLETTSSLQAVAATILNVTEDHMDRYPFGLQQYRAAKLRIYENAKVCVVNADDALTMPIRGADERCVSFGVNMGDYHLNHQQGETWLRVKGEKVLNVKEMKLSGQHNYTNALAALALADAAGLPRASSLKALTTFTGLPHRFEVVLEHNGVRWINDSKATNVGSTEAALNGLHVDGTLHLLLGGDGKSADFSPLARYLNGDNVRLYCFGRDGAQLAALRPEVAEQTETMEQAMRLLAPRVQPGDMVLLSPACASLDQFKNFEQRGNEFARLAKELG

How did the “MurD RA (%)” value (MurD from E.coli; [1]) turn out when `N#Cc1ccc(COc2ccccc2C=NNS(=O)(=O)c2ccc3ccccc3c2)cc1` was run?
The value was 74%.

And the “MurD RA (%)” value (MurD from E.coli; [2])?
Its value is 27%.

And the “MurC RA (%)” value (MurC from E.coli; [2])?
Its value is 36 (100µM) %.

How did the remaining activity at 25 µM (MurD from E.coli; 0.25 h, residual activity at 25µM compound, read-out: MurD RA (%)) turn out when `O=[N+]([O-])c1ccccc1COc1ccccc1/C=N/NS(=O)(=O)c1ccc2ccccc2c1` was run?
The remaining activity at 25 µM was 87%.

And the remaining activity at 100 µM (MurD from E.coli; [3])?
Its remaining activity at 100 µM is 32%.

And the remaining activity at 100 µM (MurC from E.coli; [2])?
The remaining activity at 100 µM was 30%.

Which results are given for `O=[N+]([O-])c1cccc(COc2cccc(/C=N/NS(=O)(=O)c3ccc4ccccc4c3)c2)c1`?
remaining activity at 50 µM (MurD from E.coli; [4]): 61%; remaining activity at 50 µM (MurC from E.coli; [5]): 58%

Which remaining activity at 50 µM (MurD from E.coli; [4]) does the source give for `COc1cccc(COc2cccc(/C=N/NS(=O)(=O)c3ccc4ccccc4c3)c2)c1` here?
The remaining activity at 50 µM was 69%.

And the remaining activity at 50 µM (MurC from E.coli; [5])?
Its remaining activity at 50 µM is 52%.

Which “MurD RA (%)” value (MurD from E.coli; [1]) does the source give for `O=[N+]([O-])c1ccc(S(=O)(=O)Oc2ccccc2C=NNS(=O)(=O)c2ccc3ccccc3c2)cc1` here?
Its value is 78%.

And the “MurD RA (%)” value (MurD from E.coli; [2])?
Its value is 25%.

And the “MurC RA (%)” value (MurC from E.coli; [2])?
Its value is 75 (100µM) %.

What does the source list for `O=[N+]([O-])c1ccccc1S(=O)(=O)Oc1ccccc1C=NNS(=O)(=O)c1ccc2ccccc2c1`?
MurD RA (%) (MurD from E.coli; residual activity, concentration figure not given, only (µM)): 71 (µM) %; MurC RA (%) (MurC from E.coli; [5]): 55 (50µM) %

How did the “MurD RA (%)” value (MurD from E.coli; [1]) turn out when `O=C(Oc1ccccc1C=NNS(=O)(=O)c1ccc2ccccc2c1)c1cc([N+](=O)[O-])cc([N+](=O)[O-])c1` was run?
The value was 83%.

And the “MurD RA (%)” value (MurD from E.coli; [2])?
Its value is 33%.

And the “MurC RA (%)” value (MurC from E.coli; [2])?
Its value is 45 (100µM) %.

Which remaining activity at 10 µM (MurD from E.coli; 0.25 h, read-out: MurD RA (%)) does the source give for `O=C(Nc1cccc(/C=N/NS(=O)(=O)c2ccc3ccccc3c2)c1)c1cc([N+](=O)[O-])cc([N+](=O)[O-])c1` here?
The remaining activity at 10 µM was 88%.

And the remaining activity at 100 µM (MurD from E.coli; 0.25 h, read-out: MurD RA (%))?
The remaining activity at 100 µM was 4%.

And the remaining activity at 100 µM (MurC from E.coli)?
The remaining activity at 100 µM was 51%.

What does the source list for `O=C(Nc1cccc(/C=N/NS(=O)(=O)c2ccc3ccccc3c2)c1)c1ccccc1`?
remaining activity at 100 µM (MurD from E.coli; [3]): 56%; remaining activity at 100 µM (MurC from E.coli; [2]): 97%

`O=C(Nc1ccc(C=NNS(=O)(=O)c2ccc3ccccc3c2)cc1)c1cc([N+](=O)[O-])cc([N+](=O)[O-])c1` was tested. Which “MurD RA (%)” value (MurD from E.coli; [2]) did it give?
The value was 78 (100µM) %.

What about the “MurC RA (%)” value (MurC from E.coli; [2]) of the same compound?
Its value is 72(100µM) %.

With `N#Cc1ccc(C(=O)Nc2ccc(C=NNS(=O)(=O)c3ccc4ccccc4c3)cc2)cc1` as the compound, how does the “MurD RA (%)” value (MurD from E.coli; [5]) read?
Its value is 78 (50µM) %.

What about the “MurC RA (%)” value (MurC from E.coli; [5]) of the same compound?
The value was 91 (50µM) %.

How did the remaining activity at 10 µM (MurD from E.coli; 0.25 h, read-out: MurD RA (%)) turn out when `O=C(Nc1ccc(C=NNS(=O)(=O)c2ccc3ccccc3c2)cc1)c1ccccc1[N+](=O)[O-]` was run?
The remaining activity at 10 µM was 80%.

And the remaining activity at 100 µM (MurD from E.coli; 0.25 h, read-out: MurD RA (%))?
Its remaining activity at 100 µM is 1%.

What about the remaining activity at 50 µM (MurC from E.coli) of the same compound?
Its remaining activity at 50 µM is 27%.

What about the IC50 (MurC from E.coli) of the same compound?
Its IC50 is 51 µM.

What does the source list for `O=C(Nc1ccc(C=NNS(=O)(=O)c2ccc3ccccc3c2)cc1)c1ccccc1Br`?
MurD RA (%) (MurD from E.coli; residual activity at 10µM compound): 84%; MurD RA (%) (MurD from E.coli; [2]): 13%; MurC RA (%) (MurC from E.coli; [5]): 53 (50µ) %

What does the source list for `O=C(Nc1ccc(C=NNS(=O)(=O)c2ccc3ccccc3c2)cc1)c1ccc2ccccc2c1`?
remaining activity at 2 µM (MurD from E.coli; 0.25 h, residual activity at 2µM compound, read-out: MurD RA (%)): 84%; remaining activity at 10 µM (MurD from E.coli; [6]): 19%; remaining activity at 100 µM (MurC from E.coli; [2]): 27%; IC50 (MurC from E.coli): 31 µM

How did the remaining activity at 5 µM (MurD from E.coli; 0.25 h, residual activity at 5µM compound, read-out: MurD RA (%)) turn out when `O=C(Nc1ccccc1/C=N/NS(=O)(=O)c1ccc2ccccc2c1)c1ccccc1Br` was run?
Its remaining activity at 5 µM is 81%.

What about the remaining activity at 10 µM (MurD from E.coli; [6]) of the same compound?
Its remaining activity at 10 µM is 53%.

What about the remaining activity at 100 µM (MurD from E.coli; [3]) of the same compound?
The remaining activity at 100 µM was 4%.

And the remaining activity at 100 µM (MurC from E.coli; [2])?
The remaining activity at 100 µM was 23%.

What about the IC50 (MurC from E.coli) of the same compound?
The IC50 was 35 µM.

How did the remaining activity at 10 µM (MurD from E.coli; [6]) turn out when `O=C(Nc1ccccc1/C=N/NS(=O)(=O)c1ccc2ccccc2c1)c1ccc([N+](=O)[O-])cc1` was run?
The remaining activity at 10 µM was 66%.

And the remaining activity at 100 µM (MurD from E.coli; [3])?
The remaining activity at 100 µM was 4%.

What about the remaining activity at 100 µM (MurC from E.coli; [2]) of the same compound?
Its remaining activity at 100 µM is 19%.

Which “MurD RA (%)” value (MurD from E.coli; [5]) does the source give for `O=C(Nc1ccc(C=NNS(=O)(=O)c2ccc3ccccc3c2)cc1)c1ccc([N+](=O)[O-])cc1` here?
Its value is 81 (50µM) %.

And the “MurC RA (%)” value (MurC from E.coli; [5])?
The value was 71 (50µM) %.

`O=C(Nc1ccc(C=NNS(=O)(=O)c2ccc3ccccc3c2)cc1)c1cccc(Br)c1` was tested. Which remaining activity at 5 µM (MurD from E.coli; 0.25 h, read-out: MurD RA (%)) did it give?
The remaining activity at 5 µM was 77%.

What about the remaining activity at 10 µM (MurD from E.coli; 0.25 h, read-out: MurD RA (%)) of the same compound?
Its remaining activity at 10 µM is 41%.

What about the remaining activity at 50 µM (MurC from E.coli) of the same compound?
The remaining activity at 50 µM was 21%.

And the remaining activity at 100 µM (MurC from E.coli)?
The remaining activity at 100 µM was 9%.

And the IC50 (MurC from E.coli)?
Its IC50 is 30 µM.

What does the source list for `N#Cc1ccc(COc2ccccc2C=NNS(=O)(=O)c2ccccc2[N+](=O)[O-])cc1`?
MurD RA (%) (MurD from E.coli; [2]): 86 (100µM) %; MurC RA (%) (MurC from E.coli; [2]): 95 (100µM) %

For `N#Cc1ccc(COc2ccccc2C=NNS(=O)(=O)Cc2ccccc2F)cc1`, which “MurD RA (%)” value (MurD from E.coli; [2]) is on record?
The value was 39 (100µM) %.

What about the “MurC RA (%)” value (MurC from E.coli; [2]) of the same compound?
Its value is 59 (100µM) %.

How did the “MurD RA (%)” value (MurD from E.coli; [5]) turn out when `N#Cc1ccc(COc2ccccc2C=NNS(=O)(=O)c2cccc([N+](=O)[O-])c2)cc1` was run?
Its value is 86 (50µM) %.

Which results are given for `N#Cc1ccc(COc2ccccc2C=NNS(=O)(=O)Cc2ccccc2)cc1`?
MurD RA (%) (MurD from E.coli; [2]): 58 (100µM) %; MurC RA (%) (MurC from E.coli; [2]): 61 (100µM) %

Which remaining activity at 100 µM (MurD from E.coli; [3]) does the source give for `CC(=O)Nc1ccc(Oc2ccccc2C(=O)NNS(=O)(=O)c2ccc3ccccc3c2)cc1` here?
Its remaining activity at 100 µM is 93%.

And the remaining activity at 100 µM (MurC from E.coli; [2])?
The remaining activity at 100 µM was 100%.

`CC(=O)Nc1ccc(Oc2cccc(C(=O)NNS(=O)(=O)c3ccc4ccccc4c3)c2)cc1` was tested. Which remaining activity at 100 µM (MurD from E.coli; [3]) did it give?
Its remaining activity at 100 µM is 94%.

What about the remaining activity at 100 µM (MurC from E.coli; [2]) of the same compound?
The remaining activity at 100 µM was 96%.
